Test results reported in PMC5849655 (European Journal of Clinical Pharmacology, 2017).

System: Caco-2 cell (human colon carcinoma cell line) monolayers
Assay: Caco-2 permeability (siponimod, reference compound)
Format: in vitro ADME
Details: SimCYP V12 input; Novartis internal studies
Procedure: Siponimod absorption was predicted based on the permeability of Caco-2 cell (human colon carcinoma cell line) monolayers and considered to be complete (fraction absorbed [fa] = 1). Absorption rate constant (Ka) was calculated from the first clinical data to be 0.98/h. […] A volume of distribution of 2.12 L/kg was estimated based on preclinical data observation. The initial CL estimation of the siponimod model was based on human in vitro data from HLM and recombinant enzyme kinetics [unpublished data]. By using the in vivo clearance (CL/F) together with the fractional contribution of each CYP enzyme (phenotyping data) in the SimCYP retrograde calculator, the enzyme CLint values were estimated, resulting in an improved drug exposure prediction (Table 3).

Caco 2 permeability, P Caco-2: 16 10^-6cm/s
Compound: CCc1cc(/C(C)=N/OCc2ccc(C3CCCCC3)c(C(F)(F)F)c2)ccc1CN1CC(C(=O)O)C1 [siponimod, Siponimod]
